This passage reports Kd and EC50 results from patent publication US11427601B1, “Inhibitors of KEAP1-Nrf2 protein-protein interaction” (Janssen Pharmaceutica NV, priority 2018, dated 2022).

The target of the first test is Kelch domain of human KEAP 1 (321-624 aa) (Homo sapiens (Human), UniProt Q14145). The experiment in a line: KEAP1 KELCH ThermoFluor binding assay. The settings on record: KEAP Kelch 1.1 μM, pH 7.0, average of results obtained, read-out: Tf Kd. (DSF heats the sample and reads unfolding from a dye or from intrinsic fluorescence.)
Chain of Kelch domain of human KEAP 1 (321-624 aa) (Q14145 321-624): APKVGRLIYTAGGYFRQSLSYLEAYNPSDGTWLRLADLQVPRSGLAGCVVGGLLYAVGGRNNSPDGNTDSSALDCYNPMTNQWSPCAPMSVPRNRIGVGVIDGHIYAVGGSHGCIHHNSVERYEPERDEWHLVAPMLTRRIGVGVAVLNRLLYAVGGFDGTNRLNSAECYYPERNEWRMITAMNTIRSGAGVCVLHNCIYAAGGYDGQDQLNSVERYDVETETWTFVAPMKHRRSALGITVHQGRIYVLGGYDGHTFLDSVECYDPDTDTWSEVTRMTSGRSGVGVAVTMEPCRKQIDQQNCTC
Description: The shift in the melting point described as a ΔTm is proportional to the concentration and affinity of the ligand. The compound potency may be compared as a rank order of either ΔTm values at a single compound concentration or in terms of KD values, estimated from concentration response curves.
The protein was expressed in E. coli with 6His tag that was cleaved prior to receipt for use.
Protein (KEAP Kelch) and compound solutions were dispensed into black 384-well polypropylene PCR microplates (Abgene) and overlayed with silicone oil (1 μL, Fluka, type DC 200) to prevent evaporation.
As usually defined, the Kd is a measure of binding affinity in units of concentration. On to `CCn1nnc2c(C)c(C(CC(=O)O)c3ccc(C)c(CN4CC5(COC5)Oc5ccccc5S4(=O)=O)n3)ccc21` (racemic) [Example 237, (R/S)-3-(6-((1,1-Dioxidospiro[benzo[b][1,4,5]oxathiazepine-4,3′-oxetan]-2(3H)-yl)methyl)-5-methylpyridin-2-yl)-3-(1-ethyl-4-methyl-1H-benzo[d][1,2,3]triazol-5-yl)propanoic acid], for which the Kd was found to be 1.5 nM.

On to `Cc1ccc(C(c2ccn3c(C(F)(F)F)nnc3c2C)C(C)C(=O)O)cc1CN1C[C@@H]2CCCCN2c2ncccc2S1(=O)=O` (stereo in doubt) [Example 129, 3-(3-(((*S)-5,5-Dioxido-7,7a,8,9,10,11-hexahydro-6H-dipyrido[2,1-d:2′,3′-f][1,2,5]thiadiazepin-6-yl)methyl)-4-methylphenyl)-2-methyl-3-(8-methyl-3-(trifluoromethyl)-[1,2,4]triazolo[4,3-a]pyridine-7-yl)propanoic acid], for which the Kd was < 1 nM.

The subject of the next test is NrF2 activation of the ARE (Glo-Response ARE-luc2P HEK293 cell line). The experiment in a line: ARE luciferase reporter assay in HEK293 cells. It is filed as cell-based. The settings on record: 24 hours, average of results obtained. A general note: A reporter such as luciferase makes a cellular process visible.
Protocol: The ARE assay utilizes a luciferase reporter cell line where the signal is proportional to NrF2 activation of the ARE. The cell line is commercially available from Promega and was prepared by stably transfecting HEK293 cells with a vector (pGL4.11) which contains the ARE response element upstream of a minimal promoter. The promoter drives expression of luc2 firefly luciferase gene. Upon disruption of KEAP1-Nrf2 binding by compound, Nrf2 translocates into the nucleus where it binds to the ARE and activates transcription of luciferase.
The materials used in this ARE assay are as follows: Glo-Response ARE-luc2P HEK293 cell line and One-Glo Luciferase Assay System were purchased from Promega (Madison, Wis.). Dulbecco's Modified Eagle medium ((DMEM), low glucose, GlutaMAX, pyruvate), fetal bovine serum (certified, heat inactivated), hygromycin B, Dulbecco's phosphate-buffered saline were purchased from Life Technologies (Grand Island, N.Y.). Penicillin, streptomycin solution (100×) and 0.05% trypsin-EDTA were purchased from Corning (Manassas, Va.). DMSO was purchased from EMD Millipore.
The ARE assay protocol is as follows: cells were maintained in growth medium (DMEM +10% FBS, 200 μg/mL hygromycin B, p-s) between 20-90% confluency by splitting twice per week. One day before the assay, cells were trypsinized, counted to determine viable cell count, and re-suspended in assay medium (DMEM +10% FBS, p-s) at 250,000 cells/mL. […] 100% DMSO was used as the low control. A 11-point dose series of the control compound was included on every plate. Compounds were spotted to an intermediate plate (Greiner # 781280 V-bottom 384 well plate) using the Echo acoustic dispenser (Labscyte San Jose, Calif.). Spot size was 240 nL.
On the day of the assay, 60 mL per well of assay medium was added to the pre-spotted plate to make 2X compound stocks using the Combi (Thermo Waltham, Mass.). Compound and medium were mixed on the Janus and 20 mL of 2× compound stock was added to the cell plate which already contained 20 mL of assay medium from cell plating. […] The plates were returned to the tissue culture incubator for 24 hours.
The next day, luciferase activity was measured according to the manufacturer's protocol for One-Glo luciferase reagent. The plates were removed from the incubator and allowed to equilibrate to room temperature for 30 min. Forty microliters of One-Glo reagent (equilibrated to room temperature) was added per well using the Combi. The plates were mixed on an orbital shaker for 3 min. Luminescence was read on the BMG Pherastar multiplate reader (Cary, N.C.) using the luminescence protocol (1 sec interval).
The dose-response data were analyzed in Genedata Screener using 4PL nonlinear regression model. Raw luminescence counts as well as normalized values were used for data analysis.
Usually EC50 stands for the concentration that produces a half-maximal response. Read a low EC50 as an effect from little substance. For `Cc1ccc([C@H](CC(=O)O)c2ccc3c(nnn3CC3CC3)c2C(F)F)cc1CN1C[C@@H]2CCCCN2c2ncccc2S1(=O)=O` (relative stereo) [Example 172, (*S)-3-(1-(Cyclopropylmethyl)-4-(difluoromethyl)-1H-benzo[d][1,2,3]triazol-5-yl)-3-(3-(((*S)-5,5-dioxido-7,7a,8,9,10,11-hexahydro-6H-dipyrido[2,1-d:2′,3′-f][1,2,5]thiadiazepin-6-yl)methyl)-4-methylphenyl)propanoic acid], the EC50 was 19 nM.

Consider `CCc1nnc2c(C)c([C@H](CC(=O)O)c3ccc(C)c(CN4C[C@H]5CCCN5c5ncccc5S4(=O)=O)c3)ccn12` (relative stereo) [Example 283, (*R)-3-(3-(((R)-5,5-dioxido-7a,8,9,10-tetrahydropyrido[2,3-f]pyrrolo[2,1-d][1,2,5]thiadiazepin-6(7H)-yl)methyl)-4-methylphenyl)-3-(3-ethyl-8-methyl-[1,2,4]triazolo[4,3-a]pyridin-7-yl)propanoic acid], for which the 50% effective concentration (EC50) turned out to be 4170 nM.

`Cc1cnc2c(c1)S(=O)(=O)N(Cc1cc([C@H](CC(=O)O)c3ccn4c(C(F)(F)F)nnc4c3C)ccc1C)C[C@@H]1CCCCN21` (relative stereo) [Example 307, (*S)-3-(4-methyl-3-(((*S)-3-methyl-5,5-dioxido-7,7a,8,9,10,11-hexahydro-6H-dipyrido[2,1-d:2′,3′-f][1,2,5]thiadiazepin-6-yl)methyl)phenyl)-3-(8-methyl-3-(trifluoromethyl)-[1,2,4]triazolo[4,3-a]pyridin-7-yl)propanoic acid]: the response was half-maximal at 2 nM (EC50).

For `Cc1ccc([C@H](c2ccc3c(nnn3C3CC3)c2C)C(C)(C)C(=O)O)cc1CN1CC2(CC2)Oc2nc(N[C@@H](C)CN3CCCCC3)c(C)cc2S1(=O)=O` (relative stereo) [Example 660, (*R)-3-(1-Cyclopropyl-4-methyl-1H-benzo[d][1,2,3]triazol-5-yl)-2,2-dimethyl-3-(4-methyl-3-((8′-methyl-1′,1′-dioxido-7′-(((S)-1-(piperidin-1-yl)propan-2-yl)amino)spiro[cyclopropane-1,4′-pyrido[2,3-b][1,4,5]oxathiazepin]-2′(3′H)-yl)methyl)phenyl)propanoic acid], the EC50 was found to be 235 nM.

`Cc1ccc([C@H](CC(=O)O)c2ccn3c(C(F)(F)F)nnc3c2C)cc1CN1CC2(COC2)Oc2ccc(F)cc2S1(=O)=O` (single isomer, unassigned) [Example 99]: the 50% effective concentration (EC50) was 5.8 nM.

`Cc1ccc([C@@H](c2ccn3c(C(F)(F)F)nnc3c2C)C(C)(C)C(=O)O)cc1CN1CC2(CC2)Oc2nc(OCCN3CCCC3)ccc2S1(=O)=O` (single isomer, unassigned) [Example 598, (*S)-3-(3-((1′,1′-dioxido-7′-(2-(pyrrolidine-1-yl)ethoxy)spiro[cyclopropane-1,4′-pyrido[2,3-b][1,4,5]oxathiazepin]-2′(3′H)-yl)methyl)-4-methylphenyl)-2,2-dimethyl-3-(8-methyl-3-(trifluoromethyl)-[1,2,4]triazolo[4,3-a]pyridine-7-yl)propanoic acid] displayed an EC50 of 8.85 nM.

Consider “(*S)-3-(3-((7′-(3-((2-(2-aminoethoxy)ethyl)amino)-3-oxopropyl)-1′,1′-dioxido-2,3,5,6-tetrahydrospiro[pyran-4,4′-pyrido[2,3-b][1,4,5]oxathiazepin]-2′(3′H)-yl)methyl)-4-methylphenyl)-2,2-dimethyl-3-(8-methyl-3-(trifluoromethyl)-[1,2,4]triazolo[4,3-a]pyridin-7-yl)propanoic acid [Example 345]”, for which the EC50 was > 20 nM.

The same test, now with this note: Homo sapiens, HEK293, 24 h, average of results obtained.
In turn, `Cc1ccc([C@H](c2cc(C)n3c(C(F)(F)F)nnc3c2C)C(C)C(=O)O)cc1CN1C[C@@H]2CCCCN2c2ncccc2S1(=O)=O` (relative stereo) [Example 133, (3*R)-3-(5,8-Dimethyl-3)-(trifluoromethyl)-[1,2,4-triazolo[4,3-a]pyridine-7-yl)-3-(3-((*S)-5,5-dioxido-7,7a,8,9,10,11-hexahydro-6H-dipyrido[2,1-d:2′,3′-f][1,2,5]thiadiazepin-6-yl)methyl)-4-methylphenyl)-2-methylpropanoic acid] yielded an EC50 of 2 nM.

For `Cc1ccc([C@H](CC(=O)O)c2cc(OC(F)F)c3c(c2)nnn3C)cc1CN1C[C@H]2CCCN2c2ncccc2S1(=O)=O` (single isomer, unassigned) [Example 247, (*S)-3-(7-(Difluoromethoxy)-1-methyl-1H-benzo[d][1,2,3]triazol-5-yl)-3-(3-(((R)-5,5-dioxido-7a,8,9,10-tetrahydropyrido[2,3-f]pyrrolo[2,1-d][1,2,5]thiadiazepin-6(7H)-yl)methyl)-4-methylphenyl)propanoic acid], it took 225 nM to reach a half-maximal effect (EC50).

`Cc1cnc2c(c1)S(=O)(=O)N(Cc1cc([C@H](c3ccn4c(C(F)(F)F)nnc4c3C)C(C)(C)C(=O)O)cnc1C)CC1(CC1)O2` (single isomer, unassigned) [Example 573, (*S)-2,2-Dimethyl-3-(8-methyl-3-(trifluoromethyl)-[1,2,4]triazolo[4,3-a]pyridin-7-yl)-3-(6-methyl-5-((8′-methyl-1′,1′-dioxidospiro[cyclopropane-1,4′-pyrido[2,3-b][1,4,5]oxathiazepin]-2′(3′H)-yl)methyl)pyridin-3-yl)propanoic acid] had an EC50 of 321 nM.

As to `Cc1cnc2c(c1)S(=O)(=O)N(Cc1cc(C(c3ccn4c(C(F)(F)F)nnc4c3C)C(C)(C)C(=O)O)cnc1C)CC1(CC1)O2` (single isomer, unassigned) [Example 574, (*R)-2,2-Dimethyl-3-(8-methyl-3-(trifluoromethyl)-[1,2,4]triazolo[4,3-a]pyridin-7-yl)-3-(6-methyl-5-((8′-methyl-1′,1′-dioxidospiro[cyclopropane-1,4′-pyrido[2,3-b][1,4,5]oxathiazepin]-2′(3′H)-yl)methyl)pyridin-3-yl)propanoic acid], the EC50 worked out at 14600 nM.

`Cc1ccc(C(c2ccn3c(C(F)(F)F)nnc3c2C)C(C)C(=O)O)cc1CN1C[C@@H]2CCCCN2c2ncccc2S1(=O)=O` (stereo in doubt) [Example 129, 3-(3-(((*S)-5,5-Dioxido-7,7a,8,9,10,11-hexahydro-6H-dipyrido[2,1-d:2′,3′-f][1,2,5]thiadiazepin-6-yl)methyl)-4-methylphenyl)-2-methyl-3-(8-methyl-3-(trifluoromethyl)-[1,2,4]triazolo[4,3-a]pyridine-7-yl)propanoic acid] returned an EC50 of 6.8 nM.
